Measurements reported in patent US9085570B2, “Substituted benzamides and their uses” (The Board of Trustees of the Leland Stanford Junior …, priority 2010, dated 2015).

Legend:
[1] = test system: RCC4 with VHL-reintroduced (RCC4/VHL); experiment: XTT cell viability assay in RCC4/VHL cells, selectivity ratio versus RCC4; assay type: cell-based; settings: Ratio = IC50RCC4/VHL/IC50RCC4
Protocol: (§1) Cell Culture. RCC4 parental and RCC4 with VHL-reintroduced (RCC4/VHL), SN12C and SN12C-CSCG-VHL shRNA were maintained in DMEM supplemented with 10% FCS.
(§2) Cell Viability Assays. For 2,3-bis[2-methoxy-4-nitro-5-sulfophenyl]-2H-tetrazolium-5-carboxanilide (XTT) assays, five thousand cells were plated in 96-well plates. The next day, vehicle (DMSO) or drug was added by serial dilution. Four days later, media were aspirated, XTT solution (0.3 mg/ml of XTT (Sigma), […] N-methyl dibenxopyrazine methyl sulfate (Simga) in phenol red-free media) was added, and the plates were incubated at 37° C. for 1-2 hours. Metabolism of XTT was quantified by measuring the absorbance at 450 nm IC50s were calculated using linear interpolation. For clonogenic survival assays, three hundred cells were plated per 60 mm tissue culture dish. The cells were allowed to attach overnight and then treated with vehicle or drug for 14 days. Colonies were fixed and stained with crystal violet (0.1% crystal violet in 95% ethanol). All conditions were measured in triplicate and each experiment was done in duplicate or triplicate. To determine necrosis, cells were treated with drug for a given time point. Media and cells were collected, centrifugated, and resuspended in 0.4% trypan blue (Invitrogen). Live and dead cells were counted on a hematocytometer.
(§3) The designation A reflects an IC50 of <1 nM; B reflects an IC50 ranging from 1 to 20 nM; and C is an IC50 of >20 nM. The designation “a” reflects a ratio of RCC4/RCC-VHL+ranging from 1 to ≦10; “b” reflects from 10 to ≦100; “c” reflects a ratio of >100. Compounds I-29 have an IC50 value of ≦10 μM when tested in the above assay.

RCC4 = experiment: XTT cell viability assay in RCC4 cells (VHL-deficient renal carcinoma); assay type: cell-based; settings: four days drug exposure
Protocol: as §1, §2, §3

Structure (SMILES) | Ratio (IC50 RCC4 Proficient VHL)/ IC50 RCC4 Deficient VHL) [1] | IC50 (RCC4; Homo sapiens, 96 h) [nM] | IC50 (RCC4) [nM] | Ratio [1]
Cc1oc(-c2ccc(C(=O)NCc3cccnc3)cc2)nc1CS(=O)(=O)C1CCNCC1 [Example 39, 4-(5-Methyl-4-((piperidin-4-ylsulfonyl)methyl)oxazol-2-yl)-N-(pyridin-3-ylmethyl)benzamide] | b (from 10 to ≦100) | > 20 | – | –
Cc1oc(-c2ccc(C(=O)NCc3cccnc3)cc2)nc1CS(=O)(=O)C1CCN(C)CC1 [Example 40, 4-(5-Methyl-4-((1-methylpiperidin-4-ylsulfonyl)methyl)oxazol-2-yl)-N-(pyridin-3-ylmethyl)benzamide] | b (from 10 to ≦100) | < 1 | – | –
Cc1oc(-c2ccc(C(=O)NCc3cccnc3)cc2)nc1CS(=O)(=O)[C@H]1CC[C@@H](N)CC1 [Example 41, 4-(4-(((1s,4s)-4-aminocyclohexylsulfonyl)methyl)-5-methyloxazol-2-yl)-N-(pyridin-3-ylmethyl)benzamide] | b (from 10 to ≦100) | – | > 20 | –
Cc1oc(-c2ccc(C(=O)NCc3cccnc3)cc2)nc1CS(=O)(=O)[C@H]1CC[C@@H](N2CCCC2)CC1 [Example 42, 4-[5-methyl-4-([[4-(pyrrolidin-1-yl)cyclohexane]sulfonyl]methyl)-1,3-oxazol-2-yl]-N-(pyridin-3-ylmethyl)benzamide] | b (from 10 to ≦100) | < 1 | – | –
Cc1oc(-c2ccc(C(=O)NCc3cccnc3)cc2)nc1CS(=O)(=O)[C@H]1CC[C@@H](N2CCCCC2)CC1 [Example 43, 4-[5-Methyl-4-([[4-(piperidin-1-yl)cyclohexane]sulfonyl]methyl)-1,3-oxazol-2-yl]-N-(pyridin-3-ylmethyl)benzamide] | b (from 10 to ≦100) | < 1 | – | –
Cc1oc(-c2ccc(C(=O)NCc3cccnc3)cc2)nc1CS(=O)(=O)[C@H]1CC[C@H](N)CC1 [Example 44, 4-(4-[[(4-Aminocyclohexane)sulfonyl]methyl]-5-methyl-1,3-oxazol-2-yl)-N-(pyridin-3-ylmethyl)benzamide] | b (from 10 to ≦100) | > 20 | – | –
Cc1oc(-c2ccc(C(=O)NCc3cccnc3)cc2)nc1CS(=O)(=O)[C@H]1CC[C@H](N2CCCC2)CC1 [Example 45, 4-[5-Methyl-4-([[4-(pyrrolidin-1-yl)cyclohexane]sulfonyl]methyl)-1,3-oxazol-2-yl]-N-(pyridin-3-ylmethyl)benzamide] | b (from 10 to ≦100) | 1 to 20 | – | –
Cc1oc(-c2ccc(C(=O)NCc3cccnc3)cc2)nc1CS(=O)(=O)[C@H]1CC[C@H](N2CCCCC2)CC1 [Example 46, 4-[5-Methyl-4-([[4-(piperidin-1-yl)cyclohexane]sulfonyl]methyl)-1,3-oxazol-2-yl]-N-(pyridin-3-ylmethyl)benzamide] | b (from 10 to ≦100) | < 1 | – | –
Cc1oc(-c2ccc(C(=O)NCc3cccnc3)cc2)nc1CS(=O)(=O)[C@H]1CC[C@H](N)C1 [Example 47, 4-[4-([[(1S,3S)-3-Aminocyclopentane]sulfonyl]methyl)-5-methyl-1,3-oxazol-2-yl]-N-(pyridin-3-ylmethyl)benzamide] | b (from 10 to ≦100) | > 20 | – | –
Cc1oc(-c2ccc(C(=O)NCc3cccnc3)cc2)nc1CS(=O)(=O)[C@H]1CC[C@H](N2CCCC2)C1 [Example 48, 4-[5-Methyl-4-([[(1S,3S)-3-(pyrrolidin-1-yl)cyclopentane]sulfonyl]methyl)-1,3-oxazol-2-yl]-N-(pyridin-3-ylmethyl)benzamide] | b (from 10 to ≦100) | < 1 | – | –
Cc1oc(-c2ccc(C(=O)NCc3cccnc3)cc2)nc1CS(=O)(=O)[C@H]1CC[C@H](N2CCCCC2)C1 [Example 49, 4-[5-Methyl-4-([[(1S,3S)-3-(piperidin-1-yl)cyclopentane]sulfonyl]methyl)-1,3-oxazol-2-yl]-N-(pyridin-3-ylmethyl)benzamide] | b (from 10 to ≦100) | – | < 1 | –
Cc1oc(-c2ccc(C(=O)NCc3cccnc3)cc2)nc1CS(=O)(=O)[C@@H]1CC[C@H](N)C1 [Example 50, 4-[4-([[(1R,3S)-3-Aminocyclopentane]sulfonyl]methyl)-5-methyl-1,3-oxazol-2-yl]-N-(pyridin-3-ylmethyl)benzamide] | b (from 10 to ≦100) | > 20 | – | –
Cc1oc(-c2ccc(C(=O)NCc3cccnc3)cc2)nc1CS(=O)(=O)[C@@H]1CC[C@H](N2CCCC2)C1 [Example 51, 4-[5-Methyl-4-([[(1R,3S)-3-(pyrrolidin-1-yl)cyclopentane]sulfonyl]methyl)-1,3-oxazol-2-yl]-N-(pyridin-3-ylmethyl)benzamide] | b (from 10 to ≦100) | < 1 | – | –
Cc1oc(-c2ccc(C(=O)NCc3cccnc3)cc2)nc1CS(=O)(=O)[C@@H]1CC[C@H](N2CCCCC2)C1 [Example 52, 4-[5-Methyl-4-([[(1R,3S)-3-(piperidin-1-yl)cyclopentane]sulfonyl]methyl)-1,3-oxazol-2-yl]-N-(pyridin-3-ylmethyl)benzamide] | a (a ratio of RCC4/RCC-VHL+ranging from 1 to ≦10) | < 1 | – | –
Cc1oc(-c2ccc(C(=O)NCc3cccnc3)cc2)nc1CS(=O)(=O)C1CCN(CC(C)C)CC1 [Example 53, 4-(5-methyl-4-[[1-(2-methylpropyl)piperidine-4-sulfonyl]methyl]-1,3-oxazol-2-yl)-N-(pyridin-3-ylmethyl)benzamide] | a (a ratio of RCC4/RCC-VHL+ranging from 1 to ≦10) | < 1 | – | –
Cc1oc(-c2ccc(C(=O)NCc3cccnc3)cc2)nc1CS(=O)(=O)C1CCN(C2CCCC2)CC1 [Example 54, 4-[4-[(1-cyclopentylpiperidine-4-sulfonyl)methyl]-5-methyl-1,3-oxazol-2-yl]-N-(pyridin-3-ylmethyl)benzamide] | b (from 10 to ≦100) | < 1 | – | –
Cc1oc(-c2ccc(C(=O)NCc3cccnc3)cc2)nc1CS(=O)(=O)C1CCN(C2CCCCC2)CC1 [Example 55, 4-[4-[(1-cyclohexylpiperidine-4-sulfonyl)methyl]-5-methyl-1,3-oxazol-2-yl]-N-(pyridin-3-ylmethyl)benzamide] | a (a ratio of RCC4/RCC-VHL+ranging from 1 to ≦10) | < 1 | – | –
O=C(Nc1cccnc1)c1ccc(CNS(=O)(=O)c2ccco2)cc1 [II-8, N-(3-Pyridinyl)-4-{[(2-furanylsulfonyl)amino]methyl}benzamide] | – | > 20 | – | a (a ratio of RCC4/RCC-VHL+ranging from 1 to ≦10)
